# According to patent US10975068B2, “6-aminopyridin-3-yl thiazoles as modulators of RORγT” (Janssen Pharmaceutica NV, priority 2016, dated 2021):
# Like-named read-outs stand apart in the source and are kept apart here.
# Experiments:
# [1] = target: human RORγt ligand binding domain (RORγt LBD) (Homo sapiens (Human), UniProt P51449); assay: RORγt ThermoFluor® assay (thermal shift binding); conditions: read-out: ThermoFluor® Assay, Kd
# From the text: ThermoFluor® is a fluorescence based assay that estimates ligand binding affinities by measuring the effect of a ligand on protein thermal stability (Pantoliano, M. W., Petrella, E. C., Kwasnoski, J. D., Lobanov, V. S., Myslik, J., Graf, E., Carver, T., Asel, E., Springer, B. A., Lane, P., and Salemme, F. R. (2001) High-density miniaturized thermal shift assays as a general strategy for drug discovery. J Biomol Screen 6, 429-40, and Matulis, D., Kranz, J. K., Salemme, F. R., and Todd, M. J. (2005) Thermodynamic stability of carbonic anhydrase: measurements of binding affinity and stoichiometry using ThermoFluor. Biochemistry 44, 5258-66). This approach is applicable to a wide variety of systems, and rigorous in theoretical interpretation through quantitation of equilibrium binding constants (KD).
# The shift in the melting point described as a ΔTm is proportional to the concentration and affinity of the ligand. The compound potency may be compared as a rank order of either ΔTm values at a single compound concentration or in terms of KD values, estimated from concentration response curves.
# RORγt ThermoFluor® Assay Construct
# For the RORγt construct used in the ThermoFluor® assay, numbering for the nucleotide sequences was based on the reference sequence for human RORγt, transcript variant 2, NCBI Accession: NM_001001523.1 (SEQ ID NO:1). Nucleotides 850-1635 (SEQ ID NO:2) coding for the wild type human RORγt ligand binding domain (RORγt LBD) were cloned into the pHIS1 vector, a modified pET E. coli expression vector (Accelagen, San Diego), containing an in-frame N-terminal His-tag and a TurboTEV protease cleavage site (ENLYFQG, SEQ ID NO:3) upstream of the cloned insert sequence. The amino acid sequence for the RORγt construct used in the Thermofluor® assay is shown as SEQ ID NO:4.
# ThermoFluor® experiments were carried out using instruments owned by Janssen Research and Discovery, L.L.C. through its acquisition of 3-Dimensional Pharmaceuticals, Inc. 1,8-ANS (Invitrogen) was used as a fluorescent dye. Protein and compound solutions are dispensed into black 384-well polypropylene PCR microplates (Abgene) and overlayed with silicone oil (1 μL, Fluka, type DC 200) to prevent evaporation.
# Bar-coded assay plates are robotically loaded onto a thermostatically controlled PCR-type thermal block and then heated at a typical ramp-rate of 1° C./min for all experiments. Fluorescence was measured by continuous illumination with UV light (Hamamatsu LC6) supplied via fiber optic and filtered through a band-pass filter (380-400 nm; >6 OD cutoff). Fluorescence emission of the entire 384-well plate was detected by measuring light intensity using a CCD camera (Sensys, Roper Scientific) filtered to detect 500±25 nm, resulting in simultaneous and independent readings of all 384 wells. Images were collected at each temperature, and the sum of the pixel intensity in a given area of the assay plate was recorded versus temperature. Reference wells contained RORγt without compounds, and the assay conditions were as follows: • 0.065 mg/mL RORγt • 60 μM 1,8-ANS • 100 mM Hepes, pH 7.0 • 10 mM NaCl • 2.5 mM GSH • 0.002% Tween-20
# Project compounds were arranged in a pre-dosed mother plate (Greiner Bio-one) wherein compounds are serially diluted in 100% DMSO by 1:2 from a high concentration of 10 mM over 12 columns within a series (column 12 is a reference well containing DMSO, no compound). The compounds were robotically dispensed directly into assay plates (×=46 nL) using a Hummingbird capillary liquid handling instrument (Digilab). Following compound dispense, protein and dye in buffer was added to achieve the final assay volume of 3 μL, followed by 1 μL of silicone oil.
# full-length human RORγt = full-length human RORγt (Homo sapiens (Human), UniProt P51449); assay: RORγt (full-length human) reporter assay, Conditions B or C; type: cell-based; conditions: for inhibition at 6 µM: read-out: RORγt (FL) Reporter Assay B or C, % inhibition @ 6 μM, Conditions B or C; for RORγt (FL) Reporter Assay B or C, % inhibition (value marked *): marked *: footnote not given; for inhibition at 3 µM: at 3 μM compound concentration, read-out: RORγt (FL) Reporter Assay B or C, % inhibition
# Sequence of full-length human RORγt (P51449 other isoform, or with tags, fused parts or gaps): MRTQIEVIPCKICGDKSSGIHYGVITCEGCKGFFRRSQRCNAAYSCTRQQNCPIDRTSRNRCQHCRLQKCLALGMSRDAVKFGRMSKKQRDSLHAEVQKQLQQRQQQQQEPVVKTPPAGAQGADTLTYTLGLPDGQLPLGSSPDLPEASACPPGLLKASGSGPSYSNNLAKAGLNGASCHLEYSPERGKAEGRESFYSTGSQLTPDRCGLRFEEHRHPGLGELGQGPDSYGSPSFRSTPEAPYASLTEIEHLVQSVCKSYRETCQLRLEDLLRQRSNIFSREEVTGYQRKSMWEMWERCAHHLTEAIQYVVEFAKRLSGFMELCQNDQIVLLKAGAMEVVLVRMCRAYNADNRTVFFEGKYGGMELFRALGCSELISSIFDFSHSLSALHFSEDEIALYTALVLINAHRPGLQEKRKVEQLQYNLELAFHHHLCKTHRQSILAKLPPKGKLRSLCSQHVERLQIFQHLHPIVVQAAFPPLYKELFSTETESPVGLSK
# From the text: RORγt (Full-Length Human) Reporter Assay:
# Cells used in this assay were transiently co-transfected with three different plasmids, one expressing the GAL4-DNA binding domain (DBD)-RORγt fusion protein under control of a CMV promoter (NH2-Gal4-DBD:RORC-COOH in pCMV-BD, Stratagene #211342), and two reporter plasmids—the firefly luciferase reporter under control of a GAL4 promoter (pFR-Luc 2×GAL4) and Renilla luciferase reporter under control of CMV promoter (pRL-CMV, Promega # E2261). The full-length coding sequence was used for human RORγt, i.e., nucleotides 142-1635 of human RORγt, transcript variant 2, NCBI Accession: NM_001001523.1 (SEQ ID NO:1). HEK293T cells were plated at 35,000 per well in 96-well plate in medium of DMEM with 10% FBS. After 18-22 hours incubation, the transfection was carried out by using a PEI solution with 170.5 ng total DNA/well (50 ng pCMV-BD-ROR plus 20 ng of pFR-Luc reporter and 0.5 ng of pRL-CMV reporter plus 100 ng Carrier DNA (Clontech #630440) for each well). 4-6 hours after transfection, cells were treated with compounds for overnight in the medium with final concentration of FBS 1.3% and DMSO 0.1%. After overnight (16 to 20 hours) incubation, media were removed and cells were lysed with 50 μL Glo Lysis Buffer (Promega) for 10-15 minutes followed by 10 minute incubation with 50 μL Dual Glo reagent (Promega) at room temperature. Firefly luciferase luminescence was measured using a BMG Pherastar plate reader. To each well, 50 μL Stop and Glo reagent was added and incubated for 10 minutes at room temperature. Renilla luminescence was measured using a BMG Pherastar plate reader. To calculate the effect of compounds on RORγt activity, firefly values were normalized against values of DMSO only and values of reference compound at saturating concentration, then further normalized against Renilla signals. IC50s were generated by plotting final Renilla normalized data against compound concentration and percent inhibition was calculated against DMSO control.
# Cells used in this assay were transiently co-transfected with three different plasmids, one expressing the GAL4-DNA binding domain (DBD)-RORγt fusion protein under control of a CMV promoter (NH2-Gal4-DBD:RORC-COOH in pCMV-BD, Stratagene #211342), and two reporter plasmids—the firefly luciferase reporter under control of a GAL4 promoter (pFR-Luc 2×GAL4) and Renilla luciferase reporter under control of CMV promoter (pRL-CMV, Promega # E2261). The full-length coding sequence was used for human RORγt, i.e., nucleotides 142-1635 of human RORγt, transcript variant 2, NCBI Accession: NM_001001523.1 (SEQ ID NO:1). HEK293T cells were plated at 8750 cells per well in 384-well plate in medium of DMEM with 10% FBS. After 18-22 hours incubation, the transfection was carried out by using a PEI solution with 42.6 ng total DNA/well (12.5 ng pCMV-BD-ROR plus 5 ng of pFR-Luc reporter and 0.125 ng of pRL-CMV reporter plus 25 ng Carrier DNA (Clontech #630440) for each well). 4-6 hours after transfection, cells were treated with compounds for overnight in the medium with final concentration of FBS 1.3% and DMSO 0.1%. After overnight (16 to 20 hours) incubation, media were removed and cells were lysed with 20 μL Glo Lysis Buffer (Promega) for 10-15 minutes followed by 10 minute incubation with 20 μL Dual Glo reagent (Promega) at room temperature. Firefly luciferase luminescence was measured using a BMG Pherastar plate reader. To each well, 20 μL Stop and Glo reagent was added and incubated for 10 minutes at room temperature. Renilla luminescence was measured using a BMG Pherastar plate reader. To calculate the effect of compounds on RORγt activity, firefly values were normalized against values of DMSO only and values of reference compound at saturating concentration, then further normalized against Renilla signals.
# [2] = Conditions B or C, read-out: RORγt (FL) Reporter Assay B or C, IC50
# [3] = read-out: RORγt (FL) Reporter Assay B or C, IC50
# Sequence of human RORγt ligand binding domain (RORγt LBD) (P51449 other isoform, or with tags, fused parts or gaps): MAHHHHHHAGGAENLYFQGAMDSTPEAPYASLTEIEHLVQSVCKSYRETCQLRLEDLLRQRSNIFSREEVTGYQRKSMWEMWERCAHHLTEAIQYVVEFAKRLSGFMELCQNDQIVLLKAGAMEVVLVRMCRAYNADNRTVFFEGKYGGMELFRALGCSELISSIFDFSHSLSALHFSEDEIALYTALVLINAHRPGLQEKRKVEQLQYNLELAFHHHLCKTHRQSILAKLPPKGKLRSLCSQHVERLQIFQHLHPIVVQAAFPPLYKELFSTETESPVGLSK
Kd [1] [nM],IC50 (full-length human RORγt; [2]) [µM],inhibition at 6 µM (full-length human RORγt) [%],inhibition at 3 µM (full-length human RORγt) [%],IC50 (full-length human RORγt; [3]) [µM],"IC50 (full-length human RORγt; HEK293T cells, read-out: RORγt (FL) Reporter Assay B or C, IC50) [µM]",Structure (SMILES),"RORγt (FL) Reporter Assay B or C, % inhibition (value marked *) (full-length human RORγt; Conditions B or C)","IC50 (full-length human RORγt; RORγt (FL) Reporter Assay B or C, IC50 (μM), Conditions B or C) [µM]"
9.5,0.037,111,–,–,–,"CC(C)(O)CNC(=O)c1nc(C(=O)N2CCC(F)CC2)c(-c2cnc(NC3CCCCC3(F)F)cc2C(F)(F)F)s1 (centres unmarked) [Example 26, 5-(6-((2,2-Difluorocyclohexyl)amino)-4-(trifluoromethyl)pyridin-3-yl)-4-(4-fluoropiperidine-1-carbonyl)-N-(2-hydroxy-2-methylpropyl)thiazole-2-carboxamide]",–,–
0.61,0.016,–,–,–,–,"C[C@H](Nc1cc(C(F)(F)F)c(-c2sc(C(=O)N[C@@H]3CCC[C@@H]3O)nc2C(=O)N2CC(F)(F)C[C@@H]2C)cn1)C1CC1 [Example 201, 5-(6-(((S)-1-Cyclopropylethyl)amino)-4-(trifluoromethyl)pyridine-3-yl)-4-((S)-4,4-difluoro-2-methylpyrrolidine-1-carbonyl)-N-((1R,2S)-2-hydroxycyclopentyl)thiazole-2-carboxamide]",102* %,–
2.6,–,–,108,0.092,–,"CC[C@H](Nc1cc(C(F)F)c(-c2sc(C(=O)NC3CN(S(C)(=O)=O)C3)nc2C(=O)N2CCC[C@@H]2C)cn1)C(F)(F)F [Example 383, 5-[4-(Difluoromethyl)-6-[[(1S)-1-(trifluoromethyl)propyl]amino]-3-pyridyl]-4-[(2S)-2-methylpyrrolidine-1-carbonyl]-N-(1-methylsulfonylazetidin-3-yl)thiazole-2-carboxamide]",–,–
3000,–,–,–,–,> 6,"C[C@H]1CCCN1C(=O)c1nc(C(=O)NCC(C)(C)O)sc1-c1ccnc(NC2CCCCC2)c1C#N [Comparator Example 1, (S)-5-(3-Cyano-2-(cyclohexylamino)pyridin-4-yl)-N-(2-hydroxy-2-methylpropyl)-4-(2-methylpyrrolidine-1-carbonyl)thiazole-2-carboxamide, reference compound]",–,–
1.3,–,–,100,0.013,–,C[C@H]1CCCN1C(=O)c1nc(C(=O)NCC(C)(C)O)sc1-c1cnc(NC(C2CC2)C(F)(F)F)cc1C(F)F (some centres unmarked) [Example 294],–,–
1.5,–,–,109,0.039,–,"CC[C@H](Nc1cc(C(F)F)c(-c2sc(C(=O)N[C@H]3CC[C@H](O)C3)nc2C(=O)N2CCC[C@@H]2C)cn1)C(F)(F)F [Example 398, 5-[4-(Difluoromethyl)-6-[[(1S)-1-(trifluoromethyl)propyl]amino]-3-pyridyl]-N-[(1S,3S)-3-hydroxycyclopentyl]-4-[(2S)-2-methylpyrrolidine-1-carbonyl]thiazole-2-carboxamide]",–,–
0.62,0.01,111,–,–,–,"C[C@H]1CCCCN1C(=O)c1nc(C(=O)NCC(C)(C)O)sc1-c1cnc(N[C@H](C)C(F)(F)F)cc1C(F)(F)F [Example 45, N-(2-Hydroxy-2-methylpropyl)-4-((S)-2-methylpiperidine-1-carbonyl)-5-(4-(trifluoromethyl)-6-(((R)-1,1,1-trifluoropropan-2-yl)amino)pyridin-3-yl)thiazole-2-carboxamide]",–,–

Structure (SMILES),Kd [1] [nM],IC50 (full-length human RORγt; [2]) [µM],inhibition at 6 µM (full-length human RORγt) [%],inhibition at 3 µM (full-length human RORγt) [%],IC50 (full-length human RORγt; [3]) [µM],"IC50 (full-length human RORγt; HEK293T cells, read-out: RORγt (FL) Reporter Assay B or C, IC50) [µM]","RORγt (FL) Reporter Assay B or C, % inhibition (value marked *) (full-length human RORγt; Conditions B or C)","IC50 (full-length human RORγt; RORγt (FL) Reporter Assay B or C, IC50 (μM), Conditions B or C) [µM]"
"CC(C)(C)Nc1cc(C(F)F)c(-c2sc(C(=O)NC3CCS(=O)(=O)CC3)nc2C(=O)N2C3CCC2CC3)cn1 [Example 433, 4-((1s,4s)-7-Azabicyclo[2.2.1]heptane-7-carbonyl)-5-[6-(tert-butylamino)-4-(difluoromethyl)-3-pyridyl]-N-(1,1-dioxothian-4-yl)thiazole-2-carboxamide]",1.2,–,–,128,0.025,–,–,–
"CCC(C)(C)Nc1cc(C(F)(F)F)c(-c2sc(C(=O)NCC(C)(C)O)nc2C(=O)N2C3CCC2CC3)cn1 [Example 98, 4-((1s,4s)-7-Azabicyclo[2.2.1]heptane-7-carbonyl)-N-(2-hydroxy-2-methylpropyl)-5-(6-(tert-pentylamino)-4-(trifluoromethyl)pyridin-3-yl)thiazole-2-carboxamide]",0.41,–,–,–,–,–,110* %,0.0096
"CC[C@H](Nc1cc(C(F)F)c(-c2sc(C(=O)NCC(C)(C)O)nc2C(=O)N2C3CCC2CC3)cn1)C1CC1 (stereo in doubt) [Example 163, 4-((1s,4s)-7-Azabicyclo[2.2.1]heptane-7-carbonyl)-5-(6-(((S*)-1-cyclopropyl)amino)-4-(difluoromethyl)pyridine-3-yl)-N-(2-hydroxy-2-methylpropyl)thiazole-2-carboxamide]",14,0.012,–,–,–,–,114* %,–
